Experimental data from patent publication US10899710B2, “Pyridines and their use in the treatment of cancer” (The United States of America, as represented by the …, priority 2015, dated 2021).
Where a name gives a salt, the structure may show the parent alone. Read-outs that look alike come from different tables or passages of the source.

How the values were obtained:
K-562 = experiment: Growth inhibition GI50, K-562; assay type: cell-based; details: Homo sapiens, K562, Leukemia
Procedure: (§1) Cell lines were plated 2000 cells/well in 96-well black optical plates in the presence of 10% FBS media containing 25 nM selenite. The following day cells were treated with various concentrations of the compound of Example 1 (0.1% DMSO final) and incubated for 72 hrs. After the incubation Cell-Quanti Blue reagent was added to each well and incubated for additional 3 hrs. Fluorescence was read ex:530 nm/em:590 nm, and percent of viability was determined using DMSO vehicle and no cell (blank) controls.
(§2) Further results obtained in similar experiments were as indicated below (GI50 refers to concentration of compound yielding 50% growth inhibition; E denotes an exponent to the base 10).

MDA-MB-435 = experiment: Growth inhibition GI50, MDA-MB-435; assay type: cell-based; details: Homo sapiens, Melanoma
Procedure: as §1, §2

IGROV1 = experiment: Growth inhibition GI50, IGROV1; assay type: cell-based; details: Homo sapiens, IGROV-1, Ovarian Cancer
Procedure: as §1, §2

COLO 205 = experiment: Growth inhibition GI50, COLO 205; assay type: cell-based; details: Homo sapiens, Colon Cancer
Procedure: as §1, §2

SW-620 = experiment: Growth inhibition GI50, SW-620; assay type: cell-based; details: Homo sapiens, Colon Cancer
Procedure: as §1, §2

CCRF-CEM = experiment: Growth inhibition GI50, CCRF-CEM; assay type: cell-based; details: Homo sapiens, Leukemia
Procedure: as §1, §2

M14 = experiment: Growth inhibition GI50, M14; assay type: cell-based; details: Homo sapiens, Melanoma
Procedure: as §1, §2

RXF 393 = experiment: Growth inhibition GI50, RXF 393; assay type: cell-based; details: Homo sapiens, Renal Cancer
Procedure: as §1, §2

CAKI-1 = experiment: Growth inhibition GI50, CAKI-1; assay type: cell-based; details: Homo sapiens, Renal Cancer
Procedure: as §1, §2

786-0 = experiment: Growth inhibition GI50, 786-0; assay type: cell-based; details: Homo sapiens, Renal Cancer
Procedure: as §1, §2

[1] = biological target: T1, recombinant thioredoxin reductase 1 (TrxR1) (Homo sapiens, UniProt Q16881); experiment: Inhibition of recombinant TrxR1 (DTNB assay); assay type: biochemical; details: read-out: TrxR inhibition (IC50)
T1 sequence (Q16881 151-649 limits assumed): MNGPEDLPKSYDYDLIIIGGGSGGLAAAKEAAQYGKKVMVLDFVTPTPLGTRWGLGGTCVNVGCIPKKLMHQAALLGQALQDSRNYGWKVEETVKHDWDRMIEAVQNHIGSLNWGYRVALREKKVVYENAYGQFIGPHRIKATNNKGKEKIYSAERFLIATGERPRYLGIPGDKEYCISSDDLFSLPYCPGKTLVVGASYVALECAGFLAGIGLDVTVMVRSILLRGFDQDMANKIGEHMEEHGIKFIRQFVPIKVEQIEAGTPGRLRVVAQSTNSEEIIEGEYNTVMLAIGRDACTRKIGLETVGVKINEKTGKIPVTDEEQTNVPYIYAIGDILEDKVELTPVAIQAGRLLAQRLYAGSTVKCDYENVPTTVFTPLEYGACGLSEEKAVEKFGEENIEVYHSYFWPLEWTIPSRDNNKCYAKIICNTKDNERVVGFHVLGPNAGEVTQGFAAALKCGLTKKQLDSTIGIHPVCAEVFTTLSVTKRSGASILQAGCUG
Procedure: Small molecule inhibition of recombinant thioredoxin reductase 1 (TrxR1) and gluthathione reductase (GR) was examined in 96-well plate format. 15 nM TrxR1 was incubated in the presence of 250 μM NADPH, 0.1 mg/ml BSA, and various concentrations of the compound of Example 1 (1% DMSO final) in 50 mM Tris (pH 7.5) and 2 mM EDTA buffer for 15 minutes. Following the incubation period, 2.5 mM DTNB was added to each well and the change in O.D. at 412 nm was followed. Percent activity was determined using DMSO vehicle and no TrxR1 (blank) controls. 2 nM GR was incubated in the presence of 250 μM NADPH, 0.1 mg/ml BSA, and various concentrations of compounds (1% DMSO final) in 50 mM Tris (pH 7.5) and 2 mM EDTA buffer for 15 minutes. Following the incubation period, 1 mM GSSG was added to each well and the change in O.D. at 340 nm was followed. Percent activity was determined using DMSO vehicle and no GR (blank) controls.

SK-MEL-2 = experiment: Growth inhibition GI50, SK-MEL-2; assay type: cell-based; details: Homo sapiens, Melanoma
Procedure: as §1, §2

OVCAR-5 = experiment: Growth inhibition GI50, OVCAR-5; assay type: cell-based; details: Homo sapiens, Ovarian Cancer
Procedure: as §1, §2

OVCAR-8 = experiment: Growth inhibition GI50, OVCAR-8; assay type: cell-based; details: Homo sapiens, Ovarian Cancer
Procedure: as §1, §2

NCI-H226 = experiment: Growth inhibition GI50, NCI-H226; assay type: cell-based; details: Homo sapiens, Non-Small Cell Lung Cancer
Procedure: as §1, §2

HCC-2998 = experiment: Growth inhibition GI50, HCC-2998; assay type: cell-based; details: Homo sapiens, Colon Cancer
Procedure: as §1, §2

UO-31 = experiment: Growth inhibition GI50, UO-31; assay type: cell-based; details: Homo sapiens, Renal Cancer
Procedure: as §1, §2

MDA-MB-468 = experiment: Growth inhibition GI50, MDA-MB-468; assay type: cell-based; details: Homo sapiens, Breast Cancer
Procedure: as §1, §2

OVCAR-3 = experiment: Growth inhibition GI50, OVCAR-3; assay type: cell-based; details: Homo sapiens, Ovarian Cancer
Procedure: as §1, §2

OVCAR-4 = experiment: Growth inhibition GI50, OVCAR-4; assay type: cell-based; details: Homo sapiens, Ovarian Cancer
Procedure: as §1, §2

RPMI-8226 = experiment: Growth inhibition GI50, RPMI-8226; assay type: cell-based; details: Homo sapiens, Leukemia
Procedure: as §1, §2

MCF7 = experiment: Growth inhibition GI50, MCF7; assay type: cell-based; details: Homo sapiens, Breast Cancer
Procedure: as §1, §2

NCI-H322M = experiment: Growth inhibition GI50, NCI-H322M; assay type: cell-based; details: Homo sapiens, Non-Small Cell Lung Cancer
Procedure: as §1, §2

NCI/ADR-RES = experiment: Growth inhibition GI50, NCI/ADR-RES; assay type: cell-based; details: Homo sapiens, Ovarian Cancer
Procedure: as §1, §2

HOP-92 = experiment: Growth inhibition GI50, HOP-92; assay type: cell-based; details: Homo sapiens, Non-Small Cell Lung Cancer
Procedure: as §1, §2

TK-10 = experiment: Growth inhibition GI50, TK-10; assay type: cell-based; details: Homo sapiens, Renal Cancer
Procedure: as §1, §2

BT-549 = experiment: Growth inhibition GI50, BT-549; assay type: cell-based; details: Homo sapiens, Breast Cancer
Procedure: as §1, §2

HOP-62 = experiment: Growth inhibition GI50, HOP-62; assay type: cell-based; details: Homo sapiens, Non-Small Cell Lung Cancer
Procedure: as §1, §2

SF-295 = experiment: Growth inhibition GI50, SF-295; assay type: cell-based; details: Homo sapiens, CNS Cancer
Procedure: as §1, §2

MALME-3M = experiment: Growth inhibition GI50, MALME-3M; assay type: cell-based; details: Homo sapiens, Melanoma
Procedure: as §1, §2

SK-MEL-28 = experiment: Growth inhibition GI50, SK-MEL-28; assay type: cell-based; details: Homo sapiens, Melanoma
Procedure: as §1, §2

MDA-MB-231/ATCC = experiment: Growth inhibition GI50, MDA-MB-231/ATCC; assay type: cell-based; details: Homo sapiens, Breast Cancer
Procedure: as §1, §2

## COc1ccc([N+](=O)[O-])c(S(=O)(=O)c2ccc(Cl)cc2)n1 [Example 1, 2-((4-Chlorophenyl)sulphonyl)-6-methoxy-3-nitropyridine Hydrochloride]
K-562
  GI50: 3020 nM
MDA-MB-435
  GI50: 1750 nM
IGROV1
  GI50: 12200 nM
COLO 205
  GI50: 1960 nM
SW-620
  GI50: 2060 nM
CCRF-CEM
  GI50: 2930 nM
M14
  GI50: 3050 nM
RXF 393
  GI50: 4450 nM
CAKI-1
  GI50: 1610 nM
786-0
  GI50: 2510 nM
[1]; Biological Example 1, 15 nM TrxR1, 15 minutes incubation
  IC50: 12 nM
[1]; Biological Example 4
  IC50: 21 nM
SK-MEL-2
  GI50: 11400 nM
OVCAR-5
  GI50: 3130 nM
OVCAR-8
  GI50: 3670 nM
NCI-H226
  GI50: 10200 nM
HCC-2998
  GI50: 8380 nM
UO-31
  GI50: 2970 nM
MDA-MB-468
  GI50: 1930 nM
OVCAR-3
  GI50: 2330 nM
OVCAR-4
  GI50: 2320 nM
RPMI-8226
  GI50: 3380 nM
MCF7
  GI50: 2240 nM
NCI-H322M
  GI50: 20400 nM
NCI/ADR-RES
  GI50: 4930 nM
HOP-92
  GI50: 2000 nM
TK-10
  GI50: 3570 nM
BT-549
  GI50: 2750 nM
HOP-62
  GI50: 16600 nM
SF-295
  GI50: 13100 nM
MALME-3M
  GI50: 2000 nM
SK-MEL-28
  GI50: 3570 nM
MDA-MB-231/ATCC
  GI50: 2830 nM
